Results: ChEMBL document CHEMBL1201862, “PubChem BioAssay data set” (2004)
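Where inhibition never reached the appropriate level, the endpoint shown equals the highest concentration tested. Otherwise, values were interpolated linearly from a five-concentration, 48-hour dose response in 96-well plates. At the GI50, growth is halved.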 Active and inactive are the calls of the source. Cut-off read from the data, not from the text of the source: active = GI50 up to about 1.1 µM and inactive = higher.

Tests used:
Test in all cases: NCI anticancer screen, dose series, 48 h
SF-268 = system: SF-268
MCF7 = system: MCF7
SF-539 = system: SF-539
IGROV-1 = system: IGROV-1
BT-549 = system: BT-549
Malme-3M = system: Malme-3M
PC-3 = system: PC-3
SR = system: SR
NCI-H23 = system: NCI-H23
COLO 205 = system: COLO 205
U-251 = system: U-251
K562 = system: K562
NCI-H460 = system: NCI-H460
OVCAR-4 = system: OVCAR-4
M14 = system: M14
HL-60 = system: HL-60
HT-29 = system: HT-29
Hs-578T = system: Hs-578T
RXF 393 = system: RXF 393
CCRF-CEM = system: CCRF-CEM

Cn1c2cn[nH]c(=O)c2c2ccc3ccccc3c21
GI50 (SF-268): 22.6 µM (inactive)
GI50 (MCF7): 30.2 µM (inactive)
GI50 (SF-539): 48.4 µM (inactive)
GI50 (IGROV-1): 11.7 µM (inactive)
GI50 (BT-549): 42.9 µM (inactive)
GI50 (Malme-3M): > 100 µM (inactive)
GI50 (PC-3): 51.2 µM (inactive)
GI50 (SR): 35.9 µM (inactive)
GI50 (NCI-H23): 21.6 µM (inactive)
GI50 (COLO 205): 23.9 µM (inactive)
GI50 (U-251): 19.9 µM (inactive)
GI50 (K562): 86.1 µM (inactive)
GI50 (NCI-H460): 20 µM (inactive)
GI50 (OVCAR-4): 58.1 µM (inactive)
GI50 (M14): > 100 µM (inactive)
GI50 (HL-60): 85.5 µM (inactive)
GI50 (HT-29): 37.3 µM (inactive)
GI50 (Hs-578T): 11.9 µM (inactive)
GI50 (RXF 393): 19.3 µM (inactive)
GI50 (CCRF-CEM): 59.2 µM (inactive)

CCOC(=O)C1=C(C)OC(=O)[C@@]2(OC)C=C(Cl)[C@@]12C
GI50 (SF-268): > 100 µM (inactive)
GI50 (MCF7): > 100 µM (inactive)
GI50 (SF-539): > 100 µM (inactive)
GI50 (IGROV-1): > 100 µM (inactive)
GI50 (BT-549): > 100 µM (inactive)
GI50 (Malme-3M): > 100 µM (inactive)
GI50 (PC-3): > 100 µM (inactive)
GI50 (SR): > 100 µM (inactive)
GI50 (NCI-H23): > 100 µM (inactive)
GI50 (COLO 205): > 100 µM (inactive)
GI50 (U-251): > 100 µM (inactive)
GI50 (K562): > 100 µM (inactive)
GI50 (NCI-H460): > 100 µM (inactive)
GI50 (OVCAR-4): > 100 µM (inactive)
GI50 (M14): > 100 µM (inactive)
GI50 (HL-60): 33 µM (inactive)
GI50 (HT-29): > 100 µM (inactive)
GI50 (Hs-578T): > 100 µM (inactive)
GI50 (RXF 393): > 100 µM (inactive)
GI50 (CCRF-CEM): > 100 µM (inactive)

CCOP(=O)(OCC)/C(C#N)=C(\C)c1ccco1
GI50 (SF-268): > 10 µM (inactive)
GI50 (MCF7): > 10 µM (inactive)
GI50 (SF-539): > 10 µM (inactive)
GI50 (IGROV-1): > 10 µM (inactive)
GI50 (BT-549): > 10 µM (inactive)
GI50 (Malme-3M): > 10 µM (inactive)
GI50 (PC-3): > 10 µM (inactive)
GI50 (SR): > 10 µM (inactive)
GI50 (NCI-H23): > 10 µM (inactive)
GI50 (COLO 205): > 10 µM (inactive)
GI50 (U-251): > 10 µM (inactive)
GI50 (K562): > 10 µM (inactive)
GI50 (NCI-H460): > 10 µM (inactive)
GI50 (OVCAR-4): > 10 µM (inactive)
GI50 (M14): > 10 µM (inactive)
GI50 (HL-60): > 10 µM (inactive)
GI50 (HT-29): > 10 µM (inactive)
GI50 (Hs-578T): > 10 µM (inactive)
GI50 (RXF 393): > 10 µM (inactive)
GI50 (CCRF-CEM): > 10 µM (inactive)

O=C(ON=c1c2ccccc2ccc2ccccc12)c1ccccc1
GI50 (SF-268): 35.6 µM (inactive)
GI50 (MCF7): 24 µM (inactive)
GI50 (SF-539): 15.5 µM (inactive)
GI50 (IGROV-1): 24 µM (inactive)
GI50 (BT-549): 31.6 µM (inactive)
GI50 (Malme-3M): 22.9 µM (inactive)
GI50 (PC-3): 40.1 µM (inactive)
GI50 (SR): 8.39 µM (inactive)
GI50 (NCI-H23): 37.5 µM (inactive)
GI50 (COLO 205): 18.1 µM (inactive)
GI50 (U-251): 19.5 µM (inactive)
GI50 (K562): 8.81 µM (inactive)
GI50 (NCI-H460): 43.2 µM (inactive)
GI50 (OVCAR-4): 28 µM (inactive)
GI50 (M14): 18.1 µM (inactive)
GI50 (HL-60): 6.28 µM (inactive)
GI50 (HT-29): 28.2 µM (inactive)
GI50 (Hs-578T): 22.2 µM (inactive)
GI50 (RXF 393): 17.9 µM (inactive)
GI50 (CCRF-CEM): 18.8 µM (inactive)

COC(=O)[C@H]1[C@H](C(=O)OC)[C@@H](C)c2c(ccc3c2[nH]c2ccccc23)[C@@H]1C
GI50 (SF-268): 48.9 µM (inactive)
GI50 (MCF7): 43.4 µM (inactive)
GI50 (SF-539): > 100 µM (inactive)
GI50 (IGROV-1): 71.9 µM (inactive)
GI50 (BT-549): > 100 µM (inactive)
GI50 (Malme-3M): 49.8 µM (inactive)
GI50 (PC-3): 37.4 µM (inactive)
GI50 (SR): 0.521 µM (active)
GI50 (NCI-H23): 41.2 µM (inactive)
GI50 (COLO 205): 66.7 µM (inactive)
GI50 (U-251): 62.1 µM (inactive)
GI50 (K562): 0.9 µM (active)
GI50 (NCI-H460): 36.8 µM (inactive)
GI50 (OVCAR-4): 38.9 µM (inactive)
GI50 (M14): 24.2 µM (inactive)
GI50 (HL-60): 5.81 µM (inactive)
GI50 (HT-29): 19.1 µM (inactive)
GI50 (Hs-578T): 31.1 µM (inactive)
GI50 (RXF 393): 14.1 µM (inactive)
GI50 (CCRF-CEM): 22.4 µM (inactive)

S=C(Nc1cccc(C2(N3CCCCC3)CCCCC2)c1)Nc1cccc(C2(N3CCCCC3)CCCCC2)c1
GI50 (SF-268): 36.8 µM (inactive)
GI50 (MCF7): 31.3 µM (inactive)
GI50 (SF-539): 15.3 µM (inactive)
GI50 (IGROV-1): 54.5 µM (inactive)
GI50 (BT-549): 41.1 µM (inactive)
GI50 (Malme-3M): 20.7 µM (inactive)
GI50 (PC-3): 26.9 µM (inactive)
GI50 (SR): 13.6 µM (inactive)
GI50 (NCI-H23): > 100 µM (inactive)
GI50 (COLO 205): 17.1 µM (inactive)
GI50 (U-251): 23.4 µM (inactive)
GI50 (K562): 11.2 µM (inactive)
GI50 (NCI-H460): 18.7 µM (inactive)
GI50 (OVCAR-4): 35.6 µM (inactive)
GI50 (M14): 18.7 µM (inactive)
GI50 (HL-60): 14.9 µM (inactive)
GI50 (HT-29): 19.4 µM (inactive)
GI50 (Hs-578T): 38.9 µM (inactive)
GI50 (RXF 393): 13.6 µM (inactive)
GI50 (CCRF-CEM): 13.6 µM (inactive)

CO[C@H]1C[C@H](n2cc(C)c(=O)[nH]c2=O)O[C@@H]1CO
GI50 (SF-268): > 100 µM (inactive)
GI50 (MCF7): > 100 µM (inactive)
GI50 (SF-539): > 100 µM (inactive)
GI50 (IGROV-1): > 100 µM (inactive)
GI50 (BT-549): > 100 µM (inactive)
GI50 (Malme-3M): > 100 µM (inactive)
GI50 (PC-3): > 100 µM (inactive)
GI50 (SR): > 100 µM (inactive)
GI50 (NCI-H23): > 100 µM (inactive)
GI50 (COLO 205): > 100 µM (inactive)
GI50 (U-251): > 100 µM (inactive)
GI50 (K562): > 100 µM (inactive)
GI50 (NCI-H460): > 100 µM (inactive)
GI50 (OVCAR-4): > 100 µM (inactive)
GI50 (M14): > 100 µM (inactive)
GI50 (HL-60): > 100 µM (inactive)
GI50 (HT-29): > 100 µM (inactive)
GI50 (Hs-578T): > 100 µM (inactive)
GI50 (RXF 393): > 100 µM (inactive)
GI50 (CCRF-CEM): > 100 µM (inactive)
